These results are taken from ChEMBL document CHEMBL3044896, “A facile route for the synthesis 1,4-disubstituted tetrazolone derivatives and evaluation of their antimicrobial activity” (2013).

For one assay, the system named is Candida albicans. The experiment in a line: Antifungal activity against Candida albicans at 100 ug/ml after 48 hr by agar well diffusion method. The assay is classed as functional. The settings on record: read-out: IZ.
Turning to `COc1ccc(/C=C(\C#N)Cn2nnn(-c3ccc(C(F)(F)F)cc3)c2=O)cc1OC`, the zone of inhibition at 100 µg/mL was 16 mm.
The same measure, in the same setting: the result for `COC(=O)/C(=C/c1ccc(F)cc1)Cn1nnn(-c2ccc(OC)cc2)c1=O` reads 17 mm; that for `COC(=O)/C(=C/c1ccc(Cl)cc1)Cn1nnn(-c2ccc(OC)cc2)c1=O`, 5 mm.
As to `CCOC(=O)/C(=C/c1ccc(Cl)cc1)Cn1nnn(-c2ccc(OC)cc2)c1=O`, the zone of inhibition at 100 µg/mL is 12 mm.
The same measure, in the same setting: the figure for `CCOC(=O)/C(=C/c1ccc(Cl)cc1)Cn1nnn(-c2ccccc2)c1=O` is 18 mm.

The next assay deals with Aspergillus niger. The experiment in a line: Antifungal activity against Aspergillus niger at 100 ug/ml after 48 hr by agar well diffusion method. The settings on record: read-out: IZ. Format: functional. (In agar diffusion tests the substance spreads into inoculated agar from a disc or well.)
As for `CCOC(=O)/C(=C/c1ccc(Cl)cc1)Cn1nnn(-c2ccc(C(F)(F)F)cc2)c1=O`, the zone of inhibition at 100 µg/mL came to 9 mm.
Turning to `N#C/C(=C\c1ccc(Cl)cc1)Cn1nnn(-c2ccc(C(F)(F)F)cc2)c1=O`, the zone of inhibition at 100 µg/mL was determined as 5 mm.
With `COc1ccc(/C=C(\C#N)Cn2nnn(-c3ccc(C(F)(F)F)cc3)c2=O)cc1OC`, the zone of inhibition at 100 µg/mL was 10 mm.
Still for that read-out and setting: the result for `COC(=O)/C(=C/c1ccc(F)cc1)Cn1nnn(-c2ccccc2)c1=O` reads 3 mm.
As to `COC(=O)/C(=C/c1ccc(F)cc1)Cn1nnn(-c2ccc(OC)cc2)c1=O`, the zone of inhibition at 100 µg/mL stood at 18 mm.
As for `CCOC(=O)/C(=C/c1ccc(Cl)cc1)Cn1nnn(-c2ccc(OC)cc2)c1=O`, the zone of inhibition at 100 µg/mL was 11 mm.
Same read-out and setting: the figure for `CCOC(=O)/C(=C/c1ccc(Cl)cc1)Cn1nnn(-c2ccccc2)c1=O` is 16 mm.

The test system of another assay is Klebsiella aerogenes. The experiment in a line: Antibacterial activity against Enterobacter aerogenes NCIM 5139 at 100 ug/ml after 18 to 24 hr by agar well diffusion method. The assay is classed as functional. The settings on record: read-out: IZ.
`CCOC(=O)/C(=C/c1ccc(Cl)cc1)Cn1nnn(-c2ccc(C(F)(F)F)cc2)c1=O`: the zone of inhibition at 100 µg/mL came to 11 mm.
Still for that read-out and setting: the result for `COC(=O)/C(=C/c1ccc([N+](=O)[O-])cc1)Cn1nnn(-c2ccc(OC)cc2)c1=O` reads 8 mm; that for `COC(=O)/C(=C/c1ccc(OC)c(OC)c1)Cn1nnn(-c2ccc(OC)cc2)c1=O`, 17 mm; that for `N#C/C(=C\c1ccc(Cl)cc1)Cn1nnn(-c2ccc(C(F)(F)F)cc2)c1=O`, 14 mm.
The same measure, in the same setting: the result for `Cc1ccc(/C=C(\C#N)Cn2nnn(-c3ccc(C(F)(F)F)cc3)c2=O)cc1` reads 6 mm; that for `COc1ccc(/C=C(\C#N)Cn2nnn(-c3ccc(C(F)(F)F)cc3)c2=O)cc1OC`, 12 mm.
The same measure, in the same setting: the figure for `COC(=O)/C(=C/c1ccc(F)cc1)Cn1nnn(-c2ccccc2)c1=O` is 3 mm; for `COC(=O)/C(=C/c1ccc(F)cc1)Cn1nnn(-c2ccc(OC)cc2)c1=O` it is 15 mm.
For the compound `COC(=O)/C(=C/c1ccc(Cl)cc1)Cn1nnn(-c2ccc(OC)cc2)c1=O`, the zone of inhibition at 100 µg/mL is 6 mm.
Consider `CCOC(=O)/C(=C/c1ccc(Cl)cc1)Cn1nnn(-c2ccccc2)c1=O`, for which the zone of inhibition at 100 µg/mL was 17 mm.

The test system of the next assay is Escherichia coli. The experiment in a line: Antibacterial activity against Escherichia coli ATCC 2343 at 100 ug/ml after 18 to 24 hr by agar well diffusion method. The assay is classed as functional. The settings on record: read-out: IZ.
`CCOC(=O)/C(=C/c1ccc(Cl)cc1)Cn1nnn(-c2ccc(C(F)(F)F)cc2)c1=O`: the zone of inhibition at 100 µg/mL amounted to 9 mm.
As to `COC(=O)/C(=C/c1ccc([N+](=O)[O-])cc1)Cn1nnn(-c2ccc(OC)cc2)c1=O`, the zone of inhibition at 100 µg/mL is 6 mm.
With `COC(=O)/C(=C/c1ccc(OC)c(OC)c1)Cn1nnn(-c2ccc(OC)cc2)c1=O`, the zone of inhibition at 100 µg/mL stood at 9 mm.
Same read-out and setting: the result for `N#C/C(=C\c1ccc(Cl)cc1)Cn1nnn(-c2ccc(C(F)(F)F)cc2)c1=O` reads 7 mm; that for `Cc1ccc(/C=C(\C#N)Cn2nnn(-c3ccc(C(F)(F)F)cc3)c2=O)cc1`, 3 mm.
On the same count and under the same terms, the figure for `COc1ccc(/C=C(\C#N)Cn2nnn(-c3ccc(C(F)(F)F)cc3)c2=O)cc1OC` is 7 mm.
For `COC(=O)/C(=C/c1ccc(F)cc1)Cn1nnn(-c2ccccc2)c1=O`, the zone of inhibition at 100 µg/mL was 4 mm.
For `COC(=O)/C(=C/c1ccc(F)cc1)Cn1nnn(-c2ccc(OC)cc2)c1=O`, the zone of inhibition at 100 µg/mL was determined as 18 mm.
Same read-out and setting: the figure for `COC(=O)/C(=C/c1ccc(Cl)cc1)Cn1nnn(-c2ccc(OC)cc2)c1=O` is 5 mm; for `CCOC(=O)/C(=C/c1ccc(Cl)cc1)Cn1nnn(-c2ccccc2)c1=O` it is 19 mm.

In the next assay the test system is Staphylococcus aureus. The experiment in a line: Antibacterial activity against Staphylococcus aureus ATCC 29737 at 100 ug/ml after 18 to 24 hr by agar well diffusion method. The settings on record: read-out: IZ. The assay is classed as functional.
On to `CCOC(=O)/C(=C/c1ccc(Cl)cc1)Cn1nnn(-c2ccc(C(F)(F)F)cc2)c1=O`, for which the zone of inhibition at 100 µg/mL amounted to 15 mm.
As to `COC(=O)/C(=C/c1ccc([N+](=O)[O-])cc1)Cn1nnn(-c2ccc(OC)cc2)c1=O`, the zone of inhibition at 100 µg/mL was found to be 12 mm.
Still for that read-out and setting: the figure for `N#C/C(=C\c1ccc(Cl)cc1)Cn1nnn(-c2ccc(C(F)(F)F)cc2)c1=O` is 13 mm.
On the same count and under the same terms, the figure for `COc1ccc(/C=C(\C#N)Cn2nnn(-c3ccc(C(F)(F)F)cc3)c2=O)cc1OC` is 16 mm; for `COC(=O)/C(=C/c1ccc(F)cc1)Cn1nnn(-c2ccccc2)c1=O` it is 7 mm.
Regarding `COC(=O)/C(=C/c1ccc(F)cc1)Cn1nnn(-c2ccc(OC)cc2)c1=O`, the zone of inhibition at 100 µg/mL was determined as 15 mm.
Still for that read-out and setting: the figure for `COC(=O)/C(=C/c1ccc(Cl)cc1)Cn1nnn(-c2ccc(OC)cc2)c1=O` is 7 mm; for `CCOC(=O)/C(=C/c1ccc(Cl)cc1)Cn1nnn(-c2ccc(OC)cc2)c1=O` it is 22 mm; for `CCOC(=O)/C(=C/c1ccc(Cl)cc1)Cn1nnn(-c2ccccc2)c1=O` it is 23 mm.

Another assay concerns Bacillus subtilis. The experiment in a line: Antibacterial activity against Bacillus subtilis ATCC 6633 at 100 ug/ml after 18 to 24 hr by agar well diffusion method. The assay is classed as functional. Conditions: read-out: IZ.
Regarding `CCOC(=O)/C(=C/c1ccc(Cl)cc1)Cn1nnn(-c2ccc(C(F)(F)F)cc2)c1=O`, the zone of inhibition at 100 µg/mL stood at 15 mm.
The same measure, in the same setting: the figure for `COC(=O)/C(=C/c1ccc([N+](=O)[O-])cc1)Cn1nnn(-c2ccc(OC)cc2)c1=O` is 10 mm.
With `N#C/C(=C\c1ccc(Cl)cc1)Cn1nnn(-c2ccc(C(F)(F)F)cc2)c1=O`, the zone of inhibition at 100 µg/mL is 7 mm.
Same read-out and setting: the figure for `COc1ccc(/C=C(\C#N)Cn2nnn(-c3ccc(C(F)(F)F)cc3)c2=O)cc1OC` is 14 mm; for `COC(=O)/C(=C/c1ccc(F)cc1)Cn1nnn(-c2ccccc2)c1=O` it is 6 mm; for `COC(=O)/C(=C/c1ccc(F)cc1)Cn1nnn(-c2ccc(OC)cc2)c1=O` it is 19 mm.
Still for that read-out and setting: the result for `COC(=O)/C(=C/c1ccc(Cl)cc1)Cn1nnn(-c2ccc(OC)cc2)c1=O` reads 14 mm.
Same read-out and setting: the figure for `CCOC(=O)/C(=C/c1ccc(Cl)cc1)Cn1nnn(-c2ccc(OC)cc2)c1=O` is 20 mm; for `CCOC(=O)/C(=C/c1ccc(Cl)cc1)Cn1nnn(-c2ccccc2)c1=O` it is 20 mm.
